Common to all, as to experiment: Kinase panel profiling at 1 µmol/L (MSA or IMAP), percentage inhibition
What all share (assay type): biochemical

Experiment [1] addresses T1, panel of 255 wild-type kinases (Homo sapiens, UniProt O14757).
T1 sequence (O14757 1-476): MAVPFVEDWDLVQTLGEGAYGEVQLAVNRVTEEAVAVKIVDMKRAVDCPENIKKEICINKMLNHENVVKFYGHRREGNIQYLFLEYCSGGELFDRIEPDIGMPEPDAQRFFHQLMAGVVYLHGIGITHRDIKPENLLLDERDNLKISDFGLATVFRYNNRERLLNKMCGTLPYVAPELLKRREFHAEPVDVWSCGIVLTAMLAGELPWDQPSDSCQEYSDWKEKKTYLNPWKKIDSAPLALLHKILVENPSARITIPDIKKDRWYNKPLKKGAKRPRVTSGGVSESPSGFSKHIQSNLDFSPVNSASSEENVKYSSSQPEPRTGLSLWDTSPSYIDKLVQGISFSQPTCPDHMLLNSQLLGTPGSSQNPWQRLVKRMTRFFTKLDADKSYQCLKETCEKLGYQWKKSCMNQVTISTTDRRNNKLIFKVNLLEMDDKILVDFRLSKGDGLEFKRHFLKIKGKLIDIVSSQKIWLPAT
Conditions: CHK1 kinase assay; 1 µmol/L single concentration; read-out: %-inhibition CHK1.

Experiment [2] has as its target panel of 255 wild-type kinases (Homo sapiens, UniProt P05129). Conditions: kinase PKCγ; 1 µmol/L single concentration; read-out: %-inhibition at 1 µmol/L, PKCγ.
Experiment [3] deals with panel of 255 wild-type kinases (Homo sapiens, UniProt P11309). Particulars: kinase PIM1; 1 µmol/L single concentration; read-out: %-inhibition at 1 µmol/L, PIM1.
Experiment [4] deals with T2, panel of 255 wild-type kinases (Homo sapiens, UniProt P15735).
T2 sequence (P15735 1-406): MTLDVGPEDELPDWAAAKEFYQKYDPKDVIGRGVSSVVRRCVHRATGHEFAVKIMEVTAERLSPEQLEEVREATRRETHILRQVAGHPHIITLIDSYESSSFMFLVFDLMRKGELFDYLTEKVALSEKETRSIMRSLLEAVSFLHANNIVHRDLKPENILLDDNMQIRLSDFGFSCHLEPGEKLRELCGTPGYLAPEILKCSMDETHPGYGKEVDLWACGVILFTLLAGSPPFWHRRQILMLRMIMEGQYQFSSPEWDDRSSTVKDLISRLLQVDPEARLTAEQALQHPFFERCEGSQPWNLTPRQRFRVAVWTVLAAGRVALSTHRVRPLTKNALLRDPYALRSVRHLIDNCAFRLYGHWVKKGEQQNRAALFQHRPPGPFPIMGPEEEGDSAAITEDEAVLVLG
Conditions: kinase PHKG2; 1 µmol/L single concentration; read-out: %-inhibition at 1 µmol/L, PHKG2.

Experiment [5] addresses panel of 255 wild-type kinases (Homo sapiens, UniProt P22455). Conditions: kinase FGFR4; 1 µmol/L single concentration; read-out: %-inhibition at 1 µmol/L, FGFR4.
The target in experiment [6] is panel of 255 wild-type kinases (Homo sapiens, UniProt P27361). Conditions: kinase Erk1; 1 µmol/L single concentration; read-out: %-inhibition at 1 µmol/L, Erk1.
For experiment [7], the target named is panel of 255 wild-type kinases (Homo sapiens, UniProt P28482). Conditions: kinase Erk2; 1 µmol/L single concentration; read-out: %-inhibition at 1 µmol/L, Erk2.
Experiment [8] deals with panel of 255 wild-type kinases (Homo sapiens, UniProt P49761). Conditions: kinase CLK3; 1 µmol/L single concentration; read-out: %-inhibition at 1 µmol/L, CLK3.
In experiment [9] the target is panel of 255 wild-type kinases (Homo sapiens, UniProt P51812). Particulars: kinase RSK2; 1 µmol/L single concentration; read-out: %-inhibition at 1 µmol/L, RSK2.
Experiment [10] addresses panel of 255 wild-type kinases (Homo sapiens, UniProt Q16644). Particulars: MAPKAPK3; 1 µmol/L single concentration; read-out: %-inhibition, MAPKAPK3.
Experiment [11] deals with panel of 255 wild-type kinases (Homo sapiens, UniProt Q8N568). Particulars: kinase DCAMKL2; 1 µmol/L single concentration; read-out: %-inhibition at 1 µmol/L, DCAMKL2.
Experiment [12] addresses T3, panel of 255 wild-type kinases (Homo sapiens, UniProt Q92630).
T3 sequence (Q92630 1-601): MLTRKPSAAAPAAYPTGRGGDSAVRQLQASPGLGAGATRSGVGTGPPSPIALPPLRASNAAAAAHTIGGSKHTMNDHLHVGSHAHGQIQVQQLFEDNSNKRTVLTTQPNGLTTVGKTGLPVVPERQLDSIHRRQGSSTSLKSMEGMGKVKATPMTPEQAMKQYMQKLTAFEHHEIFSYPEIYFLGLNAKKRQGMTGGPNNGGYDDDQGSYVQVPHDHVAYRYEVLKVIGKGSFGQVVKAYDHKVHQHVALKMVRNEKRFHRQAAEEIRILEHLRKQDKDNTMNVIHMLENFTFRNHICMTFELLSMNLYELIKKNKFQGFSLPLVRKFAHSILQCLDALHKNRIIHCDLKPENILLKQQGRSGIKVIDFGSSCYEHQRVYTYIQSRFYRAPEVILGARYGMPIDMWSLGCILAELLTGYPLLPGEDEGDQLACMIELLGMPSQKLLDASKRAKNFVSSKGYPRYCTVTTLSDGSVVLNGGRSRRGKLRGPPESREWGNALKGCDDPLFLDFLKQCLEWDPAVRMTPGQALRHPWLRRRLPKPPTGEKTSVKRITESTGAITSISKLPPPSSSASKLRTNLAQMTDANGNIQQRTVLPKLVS
Particulars: kinase DYRK2; 1 µmol/L single concentration; read-out: %-inhibition at 1 µmol/L, DYRK2.

Experiment [13] addresses panel of 255 wild-type kinases (Homo sapiens, UniProt Q9BYP7). Conditions: kinase WNK3; 1 µmol/L single concentration; read-out: %-inhibition at 1 µmol/L, WNK3.
The target of experiment [14] is panel of 255 wild-type kinases (Homo sapiens, UniProt Q9H0K1). Particulars: kinase QIK; 1 µmol/L single concentration; read-out: %-inhibition at 1 µmol/L, QIK.
Experiment [15] addresses panel of 255 wild-type kinases (Homo sapiens, UniProt Q9P286). Particulars: PAK5; 1 µmol/L single concentration; read-out: %-inhibition, PAK5.

Results on two compounds are retold here after article PMC9516332 (Frontiers in Oncology, 2022).

Consider `CCc1nc(C(N)=O)c(Nc2ccc(N3CCC(N4CCN(C)CC4)CC3)c(OC)c2)nc1NC1CCOCC1` [gilteritinib], for which the inhibition at 1 µM in experiment [1] amounted to 22%; in experiment [2] it was 19%; in experiment [3], 6%; in experiment [4], 59%; in experiment [5], 15%; in experiment [6] it was 1.85%. Also, the inhibition at 1 µM was -1.15% in experiment [7]; 7% in experiment [8]; 48% in experiment [9]; -16% in experiment [10]; 11% in experiment [11]; 39% in experiment [12]. For the same compound, the inhibition at 1 µM in experiment [13] was 5%; in experiment [14] it was 63%; in experiment [15], 92%.

Consider `O=C(Nc1cnn2ccc(N3CCC[C@@H]3c3cc(F)ccc3F)nc12)N1CC[C@H](O)C1` [larotrectinib], for which the inhibition at 1 µM is 14% in [1]; -1.62% in [2]; -5.32% in [3]; 5.63% in experiment [4]; 6% in [5]; -14% in experiment [6]. Also, the inhibition at 1 µM in experiment [7] is -6%; in [8], -3.43%; in experiment [9], -7.4%; in [10] it was -16%; in experiment [11] it was 0.701%; in [12] it was 6%. Besides, the inhibition at 1 µM in [13] was -0.6%; in experiment [14], -6.33%; in [15] it was -0.213%.
